Assay results published in article PMC11520566, “Discovery of pyrazole-based analogs as CDK2 inhibitors with apoptotic-inducing activity: design, synthesis and molecular dynamics study” (RSC Advances, 2024).
“And” between values parts separate entries of the source, which are not always exact repeats. Equal values may be shown once.

Legend:
CDK2/cyclin A2 = target: T1, CDK2/cyclin A2 (Homo sapiens, UniProt P24941); experiment: In vitro CDK2/cyclin A2 enzyme inhibition assay (ADP-Glo); format: biochemical; conditions: for percentage enzyme activity: at 50 μM; for Relative activity: supplement S1, DMSO = 100, screen at 50 μM; for IC50: n = 3, read-out: IC50 against CDK2/cyclin A2
T1 construct: purchased Promega
Experimental: The studied pyrazoles 2a–g, 4, 7a–d, 8a and b, 9, and 10 were assessed for their in vitro CDK2/cyclin A2 enzyme inhibition assay at a concentration of 50 μM using the Promega CDK2/cyclinA2 kinase enzyme system coupled with the ADP-Glo assay.[32,33] The percentage enzyme activity was the lowest for five compounds, namely 4, 7a, 7d, 8a, and 9 with values of 24.7%, 17.5%, 11.5%, 27.1% and 14.5%, respectively.
The in vitro assay of CDK2/cyclin A2 protein kinase was carried out on all the synthesized compounds. The kinase assay was performed in a 96-well white plate with a reaction volume of […]. The reaction was performed in four steps as follows: 2.5 μL of the test compounds or 5% DMSO and 5 μL of CDK2/cyclin A2 enzyme (1.6 ng) was added, and then incubated at room temperature for 30 min. Then, 5 μL of 50 μM ATP. 0.1 μg μL^−1 histone H1 was added and incubated for 10 min. The reaction was stopped by adding 12.5 μL of ADP-Glo™ Reagent and incubated for 40 min. Then 25 μL of kinase detection reagent was added to each well and incubated for 60 min before detection with luminescence (Integration time 0.5–1 s).[25,32,33]

MCF7 = experiment: NCI 60 single dose screen, Breast cancer; format: cell-based, human; conditions: single dose 10 μM
Experimental: (§1) The newly synthesized pyrazoles 2a–g, 7a–d, 8a and b, 9, and 10 were submitted to the National Cancer Institute (NCI) Developmental Therapeutics Program (http://www.dtp.nci.nih.gov) for assessment of their potential antiproliferative activity against a panel of NCI 60 cancer cell lines. All compounds were approved for screening against the approved 60 cancer cell lines at a single dose of 10 μM. The human cancer cell lines were derived from 9 variant cancer types including leukemia, melanoma, lung, colon, CNS, ovarian, renal, prostate and breast cancers. The results are presented as percentage of growth inhibition (GI%) of the screened compounds against the full panel of cell lines.
(§2) Under sterile conditions, the cell lines were grown in RPMI 1640 media (Gibco, NY, USA) supplemented with 10% fetal bovine serum (Biocell, CA, USA), and […] cell/mL was used to test the growth inhibition activity of the synthesized compounds. The compounds with concentrations ranging from 0.01 to 100 μM were prepared in phosphate buffer saline. Each compound was initially solubilized in dimethyl sulfoxide (DMSO); however, each final dilution contained less than 1% DMSO. Solutions of different concentrations (0.2 mL) were pipetted into the separate well of a microtiter tray in duplicate. Cell culture (1.8 mL) containing a cell population of […] cells per mL was pipetted into each well. Controls, containing only phosphate buffer saline and DMSO at identical dilutions, were also prepared in the same manner. These cultures were incubated in a humidified incubator at 37 °C. The incubator was supplied with 5% CO2 atmosphere. After 48 h, the cells in each well were diluted 10 times with saline and counted using a Coulter counter. The counts were corrected for the dilution.[34]

[1] = tested on: CDK 1, 2, 4, 6 and 9 isoforms; design: method as in PMID 18656911; conditions: range over CDK 1, 2, 4, 6 and 9 isoforms; cited from earlier work
CDK2 [2] = conditions: cited from earlier work; for IC50: CDK2
MDA-MB-468 = experiment: NCI 60 single dose screen, Breast cancer; format: cell-based, human; conditions: single dose 10 μM
Experimental: as §1, §2

NCI 60 cancer cell lines = experiment: NCI 60 single dose screen, mean over full panel; format: cell-based, human; conditions: mean over NCI 60 cell lines; single dose 10 μM
Experimental: as §1, §2

CDK2 [3] = experiment: Western blot of CDK2 expression in HCT-116 cells; format: cell-based; conditions: 1 μM, 48 h, vs vehicle treated cells
Text: The method of sodium dodecyl sulfate polyacrylamide gel electrophoresis (SDS-PAGE) is employed to separate proteins based on their size. When combined with western blotting (immunoblotting), both techniques are commonly used to identify the presence and/or relative abundance of a specific protein within a sample containing a complex mixture of proteins.[36] In this process, each sample's total protein content is loaded onto a gel and separated by electrophoresis, allowing proteins to migrate through the gel matrix under the influence of an electric current. To facilitate protein migration, the proteins are initially denatured and given a negative charge by exposure to a detergent like SDS. A molecular weight marker with known-sized bands assists in identifying proteins of interest. […] Typically, the secondary antibody is linked to an enzyme that generates luminescence upon reacting with its substrate. The intensity of the luminescence, directly correlating with the amount of protein that interacted with the antibody, is captured by a Bio-Rad Imager.[36] […]
HCT-116 cells were treated with either 3 μM of compound 4 and 1 μM of compound 9 and incubated 48 h. The cells were lysed by 1× RIPA buffer containing protease and phosphatase inhibitors to quantify the protein concentration by BCA protein assay. […]

T-47D = experiment: NCI 60 single dose screen, Breast; format: cell-based, human; conditions: single dose 10 μM
Experimental: as §1
Under sterile conditions, the cell lines were grown in RPMI 1640 media (Gibco, NY, USA) supplemented with 10% fetal bovine serum (Biocell, CA, USA), and […] cell/mL was used to test the growth inhibition activity of the synthesized compounds. The compounds with concentrations ranging from 0.01 to 100 μM were prepared in phosphate buffer saline. Each compound was initially solubilized in dimethyl sulfoxide (DMSO); however, each final dilution contained less than 1% DMSO. Solutions of different concentrations (0.2 mL) were pipetted into the separate well of a microtiter tray in duplicate. […] After 48 h, the cells in each well were diluted 10 times with saline and counted using a Coulter counter. […]

HCT-116 cell line = experiment: MTT cell viability assay; format: cell-based; conditions: Homo sapiens, read-out: IC50 (cytotoxicity, MTT)
in vitro = conditions: human
SK-MEL-2 = experiment: NCI 60 single dose screen, Melanoma; format: cell-based, human; conditions: single dose 10 μM
Experimental: as §1, §2

MALME-3M = experiment: NCI 60 single dose screen, Melanoma; format: cell-based, human; conditions: single dose 10 μM
Experimental: as §1, §2

CCRF-CEM = experiment: NCI 60 single dose screen, Leukemia; format: cell-based, human; conditions: single dose 10 μM
Experimental: as §1, §2

| Relative activity (CDK2/cyclin A2) | melting point [°C] | Compound | also measured |
| --- | --- | --- | --- |
| 56.4 | – | 4-Chloro-N-(4-cyano-3-(phenylamino)-1H-pyrazol-5-yl)benzamide [Compound 8a] | percentage enzyme activity (CDK2/cyclin A2): 27.1% |
| 68.6 | – | 5-((4-Methoxybenzylidene)amino)-3-(phenylamino)-1H-pyrazole-4-carbonitrile [Compound 7c] | GI% (MCF7): 79.41% |
| – | – | Nc1n[nH]c(N)c1/N=N/c1ccc(O)cc1 [CAN508 (III)] | IC50 (CDK2 [2]): 0.35 µM |
| 51.4 | 215 to 217 | O=C1NN=C(Nc2ccccc2)C1=NNc1ccccc1 [Compound 2a, 5-(Phenylamino)-4-(2-phenylhydrazono)-2,4-dihydro-3H-pyrazol-3-one] | GI% (MCF7): 73.8% |
| 55.6 | 239 to 240 | O=C1NN=C(Nc2ccccc2)C1=NNc1ccc(F)cc1 [Compound 2b, 4-(2-(4-Fluorophenyl)hydrazono)-5-(phenylamino)-2,4-dihydro-3H-pyrazol-3-one] | GI% (MCF7): 86.1%; GI% (MDA-MB-468): 72.25% |
| 59.3 | 249 to 251 | O=C1NN=C(Nc2ccccc2)C1=NNc1ccc(Cl)cc1 [Compound 2c, 4-(2-(4-Chlorophenyl)hydrazono)-5-(phenylamino)-2,4-dihydro-3H-pyrazol-3-one] | GI% (MCF7): 77.1% |
| 40.2 | 257 to 259 | O=C1NN=C(Nc2ccccc2)C1=NNc1ccc(O)cc1 [Compound 2d, 4-(2-(4-Hydroxyphenyl)hydrazono)-5-(phenylamino)-2,4-dihydro-3H-pyrazol-3-one] | mean GI% (NCI 60 cancer cell lines): 27.12% |
| 56.6 | 251 to 253 | Cc1ccc(NN=C2C(=O)NN=C2Nc2ccccc2)cc1 [Compound 2e, 5-(Phenylamino)-4-(2-(p-tolyl)hydrazono)-2,4-dihydro-3H-pyrazol-3-one] | mean GI% (NCI 60 cancer cell lines): 6.87% |
| 62.1 | 240 to 242 | COc1ccc(NN=C2C(=O)NN=C2Nc2ccccc2)cc1 [Compound 2f, 4-(2-(4-Methoxyphenyl)hydrazono)-5-(phenylamino)-2,4-dihydro-3H-pyrazol-3-one] | mean GI% (NCI 60 cancer cell lines): 10.24% |
| 59.5 | 265 to 267 | CC(=O)c1ccc(NN=C2C(=O)NN=C2Nc2ccccc2)cc1 [Compound 2g, 4-(2-(4-Acetylphenyl)hydrazono)-5-(phenylamino)-2,4-dihydro-3H-pyrazol-3-one] | – |
| 42.3 | 265 to 267 | N#Cc1c(Nc2ccccc2)n[nH]c1N=Cc1ccc(F)cc1 [Compound 7a, 5-((4-Fluorobenzylidene)amino)-3-(phenylamino)-1H-pyrazole-4-carbonitrile] | IC50 (CDK2/cyclin A2): 2 µM and 2.01 µM |
| 70.7 | 273 to 275 | N#Cc1c(Nc2ccccc2)n[nH]c1N=Cc1ccc(Cl)cc1 [Compound 7b, 5-((4-Chlorobenzylidene)amino)-3-(phenylamino)-1H-pyrazole-4-carbonitrile] | – |
| 11.5 | 284 to 285 | CN(C)c1ccc(C=Nc2[nH]nc(Nc3ccccc3)c2C#N)cc1 [Compound 7d, 5-((4-(Dimethylamino)benzylidene)amino)-3-(phenylamino)-1H-pyrazole-4-carbonitrile] | percentage enzyme activity (CDK2/cyclin A2): 11.5%; IC50 (CDK2/cyclin A2): 1.47 µM |
| 27.1 | 233 to 235 | COc1ccc(C(=O)Nc2[nH]nc(Nc3ccccc3)c2C#N)cc1 [Compound 8b, N-(4-Cyano-3-(phenylamino)-1H-pyrazol-5-yl)-4-methoxybenzamide] | IC50 (CDK2/cyclin A2): 18.7 µM |
| 14.5 | 136 to 137 | N#Cc1c(Nc2ccccc2)n[nH]c1NCc1ccccc1 [Compound 9, 5-(benzylamino)-3-(phenylamino)-1H-pyrazole-4-carbonitrile] | expression of CDK-2 (western blot) (CDK2 [3]): inhibitions in the expression of CDK-2; GI% (T-47D): 82.76%; IC50 (HCT-116 cell line): 10 µM; percentage enzyme activity (CDK2/cyclin A2): 14.5%; IC50 (CDK2/cyclin A2): 0.96 µM; IC50 (in vitro): 56.8 µM; GI% (SK-MEL-2): 79.33%; GI% (MALME-3M): 78.10%; GI% (CCRF-CEM): 81.65%; mean GI% (NCI 60 cancer cell lines): 65.90% |
| 49.9 | 173 to 175 | CC(=O)N(C(C)=O)c1[nH]nc(Nc2ccccc2)c1C#N [Compound 10, N-acetyl-N-(4-cyano-3-(phenylamino)-1H-pyrazol-5-yl)acetamide] | – |
| – | – | NC(=O)c1ccc(-c2ccc(F)c(C(=O)Nc3c[nH]nc3C(=O)Nc3ccc(F)cc3)c2F)cn1 [DC-K2in212 (IV)] | IC50 (CDK2 [2]): 0.295 µM; selectivity against CDK2 over CDK1 (CDK2 [2]): 17 fold |
